In ChEMBL document CHEMBL5050844 (2019):

Key:
[1] = Induction of anti-CD3/CD28 antibodies-stimulated human T cell activation at 1.11 uM assessed fold increase in GM-CSF secretion measured by ELISA assay; format: functional, T cell line
[2] = Induction of anti-CD3/CD28 antibodies-stimulated human T cell activation at 1.11 uM assessed fold increase in IFN-gamma secretion measured by ELISA assay; format: functional, T cell line
[3] = Induction of anti-CD3 antibodies-stimulated human CD8+ T cell activation at 10 uM assessed fold increase in cell proliferation measured by flow cytometry analysis; format: functional, T cell line; also: reference of the scale not given here
[4] = Induction of anti-CD3 antibodies-stimulated human CD8+ T cell activation at 1.11 uM assessed fold increase in cell proliferation measured by flow cytometry analysis; format: functional, T cell line; also: reference of the scale not given here
[5] = Induction of activation of human CD56+ CD3- NK cells co-cultured with human K562 cells in 1:1 ratio and assessed as increase in TNF-alpha secretion at 2.5 uM measured by ELISA assay; format: functional, Natural killer cell
[6] = Induction of anti-CD3 antibodies-stimulated human T cell activation at 1.11 uM assessed fold increase in IFN-gamma secretion measured by ELISA assay; format: functional, T cell line; also: reference of the scale not given here
[7] = Induction of allogenic human T cell activation at 10 uM assessed fold increase in cell proliferation; format: functional, T cell line
[8] = Induction of activation of human CD56+ CD3- NK cells co-cultured with human K562 cells in 1:1 ratio and assessed as increase in IFN-gamma secretion at 10 uM measured by ELISA assay; format: functional, Natural killer cell
[9] = Induction of anti-CD3/CD28 antibodies-stimulated human T cell activation at 4 uM assessed fold increase in CD25 expression measured by ELISA assay; format: functional, T cell line
B cell = test: Induction of anti-IgM-stimulated human CD20+ B cell activation at 10 to 1000 uM assessed as increase in CD69 expression measured as mean fluorescence intensity AUC by flow cytometry analysis; format: functional, cell-based; conditions: dose 10-1000 µM
[10] = Induction of anti-CD3/CD28 antibodies-stimulated human CD4+ T cell activation at 10 uM assessed fold increase in cell proliferation measured by flow cytometry analysis; format: functional, T cell line
[11] = Induction of activation of human CD56+ CD3- NK cells co-cultured with human K562 cells in 1:1 ratio and assessed as increase in IFN-gamma secretion at 2.5 uM measured by ELISA assay; format: functional, Natural killer cell
[12] = Induction of activation of human CD56+ CD3- NK cells co-cultured with human K562 cells in 1:1 ratio and assessed as increase in TNF-alpha secretion at 0.625 uM measured by ELISA assay; format: functional, Natural killer cell
[13] = Induction of anti-CD3 antibodies-stimulated human T cell activation at 10 uM assessed fold increase in TNF-alpha secretion measured by ELISA assay; format: functional, T cell line; also: reference of the scale not given here
[14] = Induction of anti-CD3 antibodies-stimulated human CD4+ T cell activation at 10 uM assessed fold increase in CD69 expression measured by flow cytometry analysis; format: functional, T cell line; also: reference of the scale not given here
[15] = Induction of anti-CD3/CD28 antibodies-stimulated human CD8+ T cell activation at 10 uM assessed fold increase in cell proliferation measured by flow cytometry analysis; format: functional, T cell line
[16] = Induction of anti-CD3/CD28 antibodies-stimulated human CD4+ T cell activation at 1.11 uM assessed fold increase in CD69 expression measured by flow cytometry analysis; format: functional, T cell line
[17] = Induction of anti-CD3/CD28 antibodies-stimulated human CD8+ T cell activation at 1.11 uM assessed fold increase in cell proliferation measured by flow cytometry analysis; format: functional, T cell line
[18] = Induction of anti-CD3/CD28 antibodies-stimulated human T cell activation at 0.3 uM assessed fold increase in IL-2 secretion measured by ELISA assay; format: functional, T cell line
[19] = Induction of anti-CD3/CD28 antibodies-stimulated human T cell activation at 10 uM assessed fold increase in TNF-alpha secretion measured by ELISA assay; format: functional, T cell line
[20] = Induction of allogenic human T cell activation at 3 uM assessed fold increase in cell proliferation; format: functional, T cell line
[21] = Induction of anti-CD3/CD28 antibodies-stimulated human CD8+ T cell activation at 10 uM assessed fold increase in CD69 expression measured by flow cytometry analysis; format: functional, T cell line
[22] = Induction of anti-CD3 antibodies-stimulated human T cell activation at 10 uM assessed fold increase in GM-CSF secretion measured by ELISA assay; format: functional, T cell line; also: reference of the scale not given here
[23] = Induction of activation of human CD56+ CD3- NK cells co-cultured with human K562 cells in 1:1 ratio and assessed as increase in TNF-alpha secretion at 10 uM measured by ELISA assay; format: functional, Natural killer cell
[24] = Induction of anti-CD3 antibodies-stimulated human exhausted T cell activation assessed fold increase in IFN-gamma secretion measured by ELISA assay; format: functional, T cell line; also: reference of the scale not given here
[25] = Induction of anti-CD3 antibodies-stimulated human T cell activation at 1 uM assessed fold increase in IL-2 secretion measured by ELISA assay; format: functional, T cell line; also: reference of the scale not given here
[26] = Induction of anti-CD3 antibodies-stimulated human exhausted T cell activation assessed fold increase in GM-CSF secretion measured by ELISA assay; format: functional, T cell line; also: reference of the scale not given here
[27] = Induction of anti-CD3/CD28 antibodies-stimulated human T cell activation at 4 uM assessed fold increase in IL-2 secretion measured by ELISA assay; format: functional, T cell line
[28] = Induction of anti-CD3 antibodies-stimulated human T cell activation at 8 uM assessed fold increase in IL-2 secretion measured by ELISA assay; format: functional, T cell line; also: reference of the scale not given here
[29] = Induction of anti-CD3/CD28 antibodies-stimulated human T cell activation at 10 uM assessed fold increase in GM-CSF secretion measured by ELISA assay; format: functional, T cell line
[30] = Induction of anti-CD3 antibodies-stimulated human T cell activation at 1 uM assessed fold increase in CD25 expression measured by ELISA assay; format: functional, T cell line; also: reference of the scale not given here
[31] = Induction of anti-CD3/CD28 antibodies-stimulated human anergic T cell activation at 0.37 uM assessed fold increase in IFN-gamma secretion measured by ELISA assay; format: functional, T cell line
[32] = Induction of anti-CD3/CD28 antibodies-stimulated human T cell activation at 1.11 uM assessed fold increase in TNF-alpha secretion measured by ELISA assay; format: functional, T cell line
[33] = Induction of anti-CD3/CD28 antibodies-stimulated human T cell activation at 10 uM assessed fold increase in IFN-gamma secretion measured by ELISA assay; format: functional, T cell line
[34] = Induction of anti-CD3/CD28 antibodies-stimulated human T cell activation at 1 uM assessed fold increase in CD25 expression measured by ELISA assay; format: functional, T cell line
[35] = Induction of anti-CD3 antibodies-stimulated human exhausted CD4+ T cell activation assessed fold increase in CTLA4 expression measured by flow cytometry analysis; format: functional, T cell line; also: reference of the scale not given here
[36] = Induction of anti-CD3 antibodies-stimulated human CD4+ T cell activation at 1.11 uM assessed fold increase in CD69 expression measured by flow cytometry analysis; format: functional, T cell line; also: reference of the scale not given here
[37] = Induction of anti-CD3/CD28 antibodies-stimulated human anergic T cell activation at 1.11 uM assessed fold increase in IFN-gamma secretion measured by ELISA assay; format: functional, T cell line

Structure (SMILES)	fold change (FC) [1]	fold change (FC) [2]	fold change (FC) [3]	fold change (FC) [4]	fold change (FC) [5]	fold change (FC) [6]	fold change (FC) [7]	fold change (FC) [8]	fold change (FC) [9]	AUC (B cell)	fold change (FC) [10]	fold change (FC) [11]	fold change (FC) [12]	fold change (FC) [13]	fold change (FC) [14]	fold change (FC) [15]	fold change (FC) [16]	fold change (FC) [17]	fold change (FC) [18]	fold change (FC) [19]	also measured
Cn1cnnc1C(F)(F)[C@](C)(F)c1cccc(N2Cc3c(cc(CN4CC[C@@H](C#N)C4)cc3C(F)(F)F)C2=O)c1	2.01	>4	>4	>4	2.01	2.01	<=2	>=5	1.31	1.01	>4	>=5	1.01	2.01	>1.601	>4	1.201	3.01	5	2.01	fold change (FC) [20]: <=2; fold change (FC) [21]: 1.201; fold change (FC) [22]: 2.01; fold change (FC) [23]: >=5; fold change (FC) [24]: >1.61; fold change (FC) [25]: 0.151; fold change (FC) [26]: >1.61; fold change (FC) [27]: >=7.5; fold change (FC) [28]: >=0.201; fold change (FC) [29]: >4; fold change (FC) [30]: 0.801; fold change (FC) [31]: <=2.5; fold change (FC) [32]: 2.01; fold change (FC) [33]: >4; fold change (FC) [34]: 1.31; fold change (FC) [35]: >1.61; fold change (FC) [36]: 1.401; fold change (FC) [37]: 2.51
C[C@H](Cc1nncn1C)c1cccc(NC(=O)c2n[nH]c3c2CCC3)c1	<=1.5	<=2	2.01	>4	1.01	2.01	<=2	2.01	1.01	0.5	>4	<=1	1.01	<=1.5	1.201	2.01	1.401	3.01	1.01	2.01	fold change (FC) [20]: <=2; fold change (FC) [21]: 1.201; fold change (FC) [22]: 1.51; fold change (FC) [23]: 1.01; fold change (FC) [24]: <=1.4; fold change (FC) [25]: 0.101; fold change (FC) [26]: <=1.4; fold change (FC) [27]: 2.51; fold change (FC) [28]: 0.151; fold change (FC) [29]: 2.01; fold change (FC) [30]: 0.601; fold change (FC) [31]: <=2.5; fold change (FC) [32]: <=1.5; fold change (FC) [33]: 2.01; fold change (FC) [34]: 1.01; fold change (FC) [35]: <=1.4; fold change (FC) [36]: >1.601; fold change (FC) [37]: <=2.5
Cn1cnnc1C(F)(F)C(C)(F)c1cccc(N2Cc3c(cc(CN4CC[C@@H](F)C4)cc3C(F)(F)F)C2=O)c1 (single isomer, unassigned)	2.01	2.01	>4	>4	2.01	<=2	2.01	>=5	1.51	1.01	>4	2.01	1.01	1.51	>1.601	>4	1.201	2.01	2.51	2.01	fold change (FC) [20]: <=2; fold change (FC) [21]: 1.201; fold change (FC) [22]: 2.01; fold change (FC) [23]: >=5; fold change (FC) [24]: >1.61; fold change (FC) [25]: >=0.201; fold change (FC) [26]: 1.41; fold change (FC) [27]: >=7.5; fold change (FC) [28]: >=0.201; fold change (FC) [29]: >4; fold change (FC) [30]: >=1.001; fold change (FC) [31]: 2.51; fold change (FC) [32]: 2.01; fold change (FC) [33]: >4; fold change (FC) [34]: 1.51; fold change (FC) [35]: >1.61; fold change (FC) [36]: 1.401; fold change (FC) [37]: 2.51
